Biological target: T1, FGFR2 (Homo sapiens, UniProt P21802)
T1 construct: purchased Thermo Fisher Scientific (Life Technologies) SelectScreen
Assay: SelectScreen Z'LYTE
Format: biochemical
How it was run: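 NU5455 was profiled across the SelectScreen Broad panel of kinase activity and binding assays. Z'LYTE reactions such as CSF1R ran at apparent Km ATP, while the Adapta CAMK1 assay used ATP listed as 10. Values are given as percent.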

T1 sequence (P21802 22-821): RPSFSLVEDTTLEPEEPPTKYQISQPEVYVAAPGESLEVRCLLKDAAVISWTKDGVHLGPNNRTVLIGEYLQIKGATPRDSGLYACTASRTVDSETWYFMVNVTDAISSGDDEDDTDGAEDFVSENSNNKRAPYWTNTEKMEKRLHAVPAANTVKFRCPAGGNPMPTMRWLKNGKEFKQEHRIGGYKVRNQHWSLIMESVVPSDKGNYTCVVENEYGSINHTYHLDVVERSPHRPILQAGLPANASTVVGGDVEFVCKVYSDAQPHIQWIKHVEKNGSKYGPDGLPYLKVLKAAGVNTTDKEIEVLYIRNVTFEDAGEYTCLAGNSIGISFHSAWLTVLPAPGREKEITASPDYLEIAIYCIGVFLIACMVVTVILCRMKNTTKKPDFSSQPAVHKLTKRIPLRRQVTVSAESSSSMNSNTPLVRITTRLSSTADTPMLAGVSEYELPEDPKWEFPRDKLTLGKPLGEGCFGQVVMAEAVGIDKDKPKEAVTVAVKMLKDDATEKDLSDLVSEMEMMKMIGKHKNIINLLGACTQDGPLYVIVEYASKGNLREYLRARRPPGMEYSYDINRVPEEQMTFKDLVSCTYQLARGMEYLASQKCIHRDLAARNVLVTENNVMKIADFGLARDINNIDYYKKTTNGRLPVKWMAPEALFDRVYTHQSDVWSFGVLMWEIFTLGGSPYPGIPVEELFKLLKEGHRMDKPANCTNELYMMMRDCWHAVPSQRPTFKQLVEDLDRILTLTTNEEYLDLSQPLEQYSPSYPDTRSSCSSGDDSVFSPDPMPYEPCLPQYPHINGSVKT

CN(C(=O)CN1CCOCC1)c1ccc2sc3c(-c4cccc5c(=O)cc(N6CC7CCC(C6)O7)oc45)cccc3c2c1 [NU5455] gave an inhibition at 1 µM of 0%.

From article PMC6934184, “Selective DNA-PKcs inhibition extends the therapeutic index of localized radiotherapy and chemotherapy” (The Journal of Clinical Investigation, 2019)
